Assay results from patent US9708336B2, “Metallo-beta-lactamase inhibitors” (priority 2014, dated 2017).
Like-named read-outs stand apart in the source and are kept apart here.

Columns and labels:
IMP-1 = IMP-1 (Serratia marcescens, UniProt P52699); test: biochemical; type: biochemical
VIM-1 = VIM-1 (Pseudomonas aeruginosa (strain ATCC 15692 / DSM 22644 / CIP 104116 / JCM 14847 / LMG 12228 / 1C / PRS 101 / PAO1), UniProt A0A0F7KYQ8); test: Enzyme activity: determination of IC50, fluorescence assay with CCF2-FA substrate (VIM-1); type: biochemical
NDM-1 = NDM-1 (Klebsiella pneumoniae, UniProt C7C422); test: biochemical; type: biochemical
NDM-1, sequence (C7C422 whole entry, looked up, species assumed): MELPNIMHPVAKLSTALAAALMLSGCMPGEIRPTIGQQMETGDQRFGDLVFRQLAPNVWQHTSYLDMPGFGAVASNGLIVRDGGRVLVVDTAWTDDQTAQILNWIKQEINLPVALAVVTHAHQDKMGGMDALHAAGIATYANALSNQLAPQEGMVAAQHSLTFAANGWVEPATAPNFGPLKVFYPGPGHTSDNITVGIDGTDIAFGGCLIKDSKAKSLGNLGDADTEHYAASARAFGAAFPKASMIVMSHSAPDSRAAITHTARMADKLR

[1] = system: Escherichia coli expressing NDM-1 (CLB30005); test: Antibiotic potentiation activity: synergistic concentration (MITC95) with imipenem, OD600 growth; type: cell-based; conditions: for Escherichia coli expressing NDM-1 (CLB 30005) MITC95: concentration giving 95% inhibition of bacterial growth; for Escherichia coli MITC95: Escherichia coli expressing NDM-1 (CLB30005), 95% growth inhibition
Summary of the method: (§1)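 Compound activity is tested with and without imipenem, which is present at 4 μg/ml (or 1 μg/ml) in the well. Bacteria in 1.1× CAMHB are incubated 22–24 h at 35 °C; absorbance gives the growth endpoint.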

[2] = system: Serratia marcescens expressing IMP-1 (CL5741); test: as above; type: cell-based; conditions: for Serratia marcescens expressing IMP-1 (CL5741) MITC95: concentration giving 95% inhibition of bacterial growth; for Serratia marcescens MITC95: Serratia marcescens expressing IMP-1 (CL5741), 95% growth inhibition
Summary of the method: as §1

[3] = system: Klebsiella pneumoniae expressing VIM-1 (IHMA599644); test: as above; type: cell-based; conditions: for Klebsiella pneumoniae expressing VIM-1 (IHMA 599644) MITC95: concentration giving 95% inhibition of bacterial growth; for Klebsiella pneumoniae MITC95: Klebsiella pneumoniae expressing VIM-1 (IHMA599644), 95% growth inhibition
Summary of the method: as §1

[4] = fluorescence assay with CCF2-FA substrate, read-out: IMP-1 IC50
[5] = fluorescence assay with CCF2-FA substrate, read-out: VIM-1 IC50
[6] = fluorescence assay with CCF2-FA substrate, read-out: NDM-1 IC50
[7] = VIM-1 IC50, fluorescence assay with CCF2-FA substrate
[8] = IMP-1 enzyme, CCF2-FA fluorescence assay, read-out: IMP-1 IC50
[9] = VIM-1 enzyme, CCF2-FA fluorescence assay, read-out: VIM-1 IC50
[10] = NDM-1 enzyme, CCF2-FA fluorescence assay, read-out: NDM-1 IC50

IMP-1, sequence (P52699 whole entry, looked up): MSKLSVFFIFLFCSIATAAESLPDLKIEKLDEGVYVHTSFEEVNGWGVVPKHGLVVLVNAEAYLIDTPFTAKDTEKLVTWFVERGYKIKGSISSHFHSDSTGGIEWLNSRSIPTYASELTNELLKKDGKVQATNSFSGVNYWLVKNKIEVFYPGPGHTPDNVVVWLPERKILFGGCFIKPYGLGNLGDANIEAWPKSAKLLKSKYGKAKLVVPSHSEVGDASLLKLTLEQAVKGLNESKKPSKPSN

| SMILES | IC50 (IMP-1; [4]) | IC50 (VIM-1; [5]) | IC50 (NDM-1; [6]) | Escherichia coli expressing NDM-1 (CLB 30005) MITC95 [1] | Serratia marcescens expressing IMP-1 (CL5741) MITC95 [2] | Klebsiella pneumoniae expressing VIM-1 (IHMA 599644) MITC95 [3] | IC50 (VIM-1; [7]) | IC50 (IMP-1) | IC50 (NDM-1) | IC50 (IMP-1; [8]) | IC50 (VIM-1; [9]) | IC50 (NDM-1; [10]) | Escherichia coli MITC95 [1] | Serratia marcescens MITC95 [2] | Klebsiella pneumoniae MITC95 [3] | IC50 (VIM-1; VIM-1 IC50, VIM-1 enzyme, CCF2-FA fluorescence assay) |
| --- | --- | --- | --- | --- | --- | --- | --- | --- | --- | --- | --- | --- | --- | --- | --- | --- |
| NS(=O)(=O)c1nccc(-c2ccc3cccnc3c2)c1-c1nn[nH]n1 [Example 213, 4-(quinolin-7-yl)-3-(2H-tetrazol-5-yl)pyridine-2-sulfonamide] | 564 nM | 62.4 nM | 51 nM | 1.042 µM | 37.5 µM | 100 µM | – | – | – | – | – | – | – | – | – | – |
| NS(=O)(=O)c1nccc(-c2ccc(C(=O)O)cc2)c1-c1nnn[nH]1 [Example 183, 4-(2-Sulfamoyl-3-(1H-tetrazol-5-yl)pyridin-4-yl)benzoic acid] | 339 nM | – | 11.5 nM | 4.688 µM | 50 µM | 75 µM | 173 nM | – | – | – | – | – | – | – | – | – |
| NS(=O)(=O)c1nccc(-c2ccc(C3CCOCC3)cc2)c1-c1nnn[nH]1 [Example 187, 4-(4-(Tetrahydro-2H-pyran-4-yl)phenyl)-3-(1H-tetrazol-5-yl)pyridine-2-sulfonamide] | 28.9 nM | 150 nM | 2.81 nM | 15.63 µM | 25 µM | >200 µM | – | – | – | – | – | – | – | – | – | – |
| CC1(c2ccc(-c3cccc(S(N)(=O)=O)c3-c3nn[nH]n3)cc2)SC(=O)NC1=O (stereo not drawn) [Example 75, 4′-(5-methyl-2,4-dioxo-1,3-thiazolidin-5-yl)-2-(2H-tetrazol-5-yl)biphenyl-3-sulfonamide] | 9.96 nM | 98.1 nM | 4.57 nM | 6.25 µM | 3.906 µM | >200 µM | – | – | – | – | – | – | – | – | – | – |
| CC(CO)Oc1ccc(-c2cccc(S(N)(=O)=O)c2-c2nn[nH]n2)cc1 (stereo not drawn) [Example 6, 4′-(2-hydroxy-1-methylethoxy)-2-(2H-tetrazol-5-yl)biphenyl-3-sulfonamide] | – | 42.3 nM | – | 1.563 µM | 50 µM | >200 µM | – | 39.6 nM | 1.96 nM | – | – | – | – | – | – | – |
| Cc1sccc1-c1cccc(S(N)(=O)=O)c1-c1nn[nH]n1 [Example 108, 3-(2-methylthiophen-3-yl)-2-(2H-tetrazol-5-yl)benzenesulfonamide] | 255 nM | – | 5.8 nM | 1.172 µM | 18.75 µM | 37.5 µM | 45 nM | – | – | – | – | – | – | – | – | – |
| COc1cncc(-c2cccc(S(N)(=O)=O)c2-c2nn[nH]n2)n1 [Example 40, 3-(6-methoxypyrazin-2-yl)-2-(2H-tetrazol-5-yl)benzenesulfonamide] | 3050 nM | 560 nM | 42.2 nM | 3.125 µM | 200 µM | 200 µM | – | – | – | – | – | – | – | – | – | – |
| NS(=O)(=O)c1cc(Cl)cc(-c2ccc3c(c2)C(=O)NC3)c1-c1nn[nH]n1 [Example 289, 5-Chloro-3-(3-oxo-2,3-dihydro-1H-isoindol-5-yl)-2-(2H-tetrazol-5-yl)benzenesulfonamide] | – | – | – | – | – | – | – | – | – | 121 nM | 452 nM | 13.5 nM | 3.125 µM | 31.25 µM | >200 µM | – |
| NS(=O)(=O)c1cccc(-c2ccc(N3CCCCC3)nc2)c1-c1nn[nH]n1 [Example 322, 3-(6-(piperidin-1-yl)pyridin-3-yl)-2-(2H-tetrazol-5-yl)benzenesulfonamide] | – | – | – | – | – | – | – | – | – | 321 nM | 3650 nM | 36.5 nM | 7.813 µM | 25 µM | 200 µM | – |
| NS(=O)(=O)c1cccc(-c2cncs2)c1-c1nn[nH]n1 [Example 44, 2-(2H-tetrazol-5-yl)-3-(1,3-thiazol-5-yl)benzenesulfonamide] | 293 nM | 294 nM | 34.6 nM | 0.3906 µM | 12.5 µM | 37.5 µM | – | – | – | – | – | – | – | – | – | – |
| NS(=O)(=O)c1cccc(-c2ccc3cn[nH]c3c2)c1-c1nn[nH]n1 [Example 90, 3-(1H-indazol-6-yl)-2-(2H-tetrazol-5-yl)benzenesulfonamide] | 197 nM | 15.5 nM | 2.24 nM | 0.5859 µM | 25 µM | 12.5 µM | – | – | – | – | – | – | – | – | – | – |
| NS(=O)(=O)c1cccc(-c2cnc(N3CCNCC3)nc2)c1-c1nn[nH]n1 [Example 320, 3-(2-(Piperazin-1-yl)pyrimidin-5-yl)-2-(2H-tetrazol-5-yl)benzenesulfonamide] | – | – | – | – | – | – | – | – | – | 294 nM | – | 14.4 nM | 0.6836 µM | 9.375 µM | 6.25 µM | 35.9 nM |
| CN(c1ncc(-c2cccc(S(N)(=O)=O)c2-c2nn[nH]n2)cn1)S(C)(=O)=O [Example 55, 3-{2-[methyl(methylsulfonyl)amino]pyrimidin-5-yl}-2-(2H-tetrazol-5-yl)benzenesulfonamide] | 52.7 nM | 144 nM | 3.48 nM | 1.953 µM | 12.5 µM | 200 µM | – | – | – | – | – | – | – | – | – | – |
| C[C@H]1NC(=O)O[C@H]1c1ccc(-c2ccnc(S(N)(=O)=O)c2-c2nnn[nH]2)cc1 (racemic) [Example 191, (±)-4-(4-(cis-4-Methyl-2-oxooxazolidin-5-yl)phenyl)-3-(1H-tetrazol-5-yl)pyridine-2-sulfonamide] | – | 45.9 nM | 7.75 nM | 9.375 µM | 15.63 µM | 75 µM | – | 76 nM | – | – | – | – | – | – | – | – |
| NS(=O)(=O)c1cccc(-c2ccco2)c1-c1nn[nH]n1 [Example 41, 3-furan-2-yl-2-(2H-tetrazol-5-yl)benzenesulfonamide] | 247 nM | 1150 nM | 30.4 nM | 0.3906 µM | 9.375 µM | 200 µM | – | – | – | – | – | – | – | – | – | – |
| Cn1nccc1-c1cccc(S(N)(=O)=O)c1-c1nn[nH]n1 [Example 49, 3-(1-methyl-1H-pyrazol-5-yl)-2-(2H-tetrazol-5-yl)benzenesulfonamide] | 4050 nM | 61.7 nM | 21.6 nM | 0.5859 µM | 150 µM | 12.5 µM | – | – | – | – | – | – | – | – | – | – |
| CCCc1ccc(-c2ccc(C3CCNCC3)cc2)c(-c2nnn[nH]2)c1S(N)(=O)=O [Example 260, 4′-(Piperidin-4-yl)-4-propyl-2-(1H-tetrazol-5-yl)-[1,1′-biphenyl]-3-sulfonamide] | – | – | – | – | – | – | – | – | – | 6.72 nM | 0.797 nM | 11.2 nM | 6.25 µM | 1.563 µM | 6.25 µM | – |
| CN1CCC=C(c2cccc(S(N)(=O)=O)c2-c2nn[nH]n2)C1 [Example 65, 3-(1-methyl-1,2,5,6-tetrahydropyridin-3-yl)-2-(2H-tetrazol-5-yl)benzenesulfonamide] | 20000 nM | 4990 nM | 905 nM | 4.688 µM | >200 µM | >200 µM | – | – | – | – | – | – | – | – | – | – |
| NS(=O)(=O)c1cccc(-c2cnn3c2CCCC3)c1-c1nn[nH]n1 [Example 107, 3-(4,5,6,7-tetrahydropyrazolo[1,5-a]pyridin-3-yl)-2-(2H-tetrazol-5-yl)benzenesulfonamide] | 365 nM | 194 nM | 10 nM | 3.906 µM | 15.63 µM | 200 µM | – | – | – | – | – | – | – | – | – | – |
| Nc1ncc(-c2cccc(S(N)(=O)=O)c2-c2nnn[nH]2)cn1 [Example 301, 3-(2-aminopyrimidin-5-yl)-2-(1H-tetrazol-5-yl)benzenesulfonamide] | – | – | – | – | – | – | – | – | – | 1380 nM | 282 nM | 8.2 nM | 0.7813 µM | 37.5 µM | 25 µM | – |
| NS(=O)(=O)c1cccc(-c2ccc(N3CCNCC3)nc2)c1-c1nn[nH]n1 [Example 324, 3-(6-(piperazin-1-yl)pyridin-3-yl)-2-(2H-tetrazol-5-yl)benzenesulfonamide] | – | – | – | – | – | – | – | – | – | 1020 nM | 404 nM | 105 nM | 13.28 µM | 32.81 µM | 37.5 µM | – |
